From publication PMC4319022 (The Journal of Biological Chemistry, 2014)
Like-named read-outs stand apart in the source and are kept apart here.

Key:
[1] = target: T1, human α7 nAChR (Homo sapiens, UniProt P36544); experiment: two-electrode voltage clamp, Xenopus oocytes; assay type: cell-based
T1 construct: gene CHRNA7; full-length subunit cDNA in pSP64GL, cRNA injected in Xenopus laevis oocytes, homopentamer
Excerpt: two-electrode voltage clamp, Xenopus oocytes on human α7 nAChR

[2] = target: T1, human α7 nAChR; experiment: two-electrode voltage clamp, Xenopus oocytes; assay type: cell-based; remark: listed apart in the source

T1 sequence (P36544 23-502): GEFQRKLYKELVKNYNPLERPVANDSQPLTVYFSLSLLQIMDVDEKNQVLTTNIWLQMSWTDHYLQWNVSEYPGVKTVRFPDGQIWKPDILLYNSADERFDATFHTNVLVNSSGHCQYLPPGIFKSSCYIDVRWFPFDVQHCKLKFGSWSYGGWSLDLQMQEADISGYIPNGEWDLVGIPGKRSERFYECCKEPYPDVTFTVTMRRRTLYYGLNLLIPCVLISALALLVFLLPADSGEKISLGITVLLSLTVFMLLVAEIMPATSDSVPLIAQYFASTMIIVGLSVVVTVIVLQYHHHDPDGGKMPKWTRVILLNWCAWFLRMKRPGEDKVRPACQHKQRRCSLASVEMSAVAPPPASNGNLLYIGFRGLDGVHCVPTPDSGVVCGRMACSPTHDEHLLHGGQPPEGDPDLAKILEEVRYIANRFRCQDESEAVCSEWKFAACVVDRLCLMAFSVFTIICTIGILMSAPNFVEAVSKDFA

## Cc1cc(C)cc(C2Nc3ccc(S(N)(=O)=O)cc3C3C=CCC32)c1 (stereo not drawn) [3,5MP-TQS, cis-cis-4-(3,5-dimethylphenyl)-3a,4,5,9b-tetrahydro-3H-cyclopenta[c]quinoline-8-sulfonamide]
[1]; read-out: EC50
  EC50: 3.7 ± 1.2 µM

## Cc1ccccc1C1Nc2ccc(S(N)(=O)=O)cc2C2C=CCC21 (stereo not drawn) [2MP-TQS, cis-cis-4-o-tolyl-3a,4,5,9b-tetrahydro-3H-cyclopenta[c]quinoline-8-sulfonamide]
[1]; read-out: EC50
  EC50: 16 ± 1.3 µM

## Cc1cccc(C)c1C1Nc2ccc(S(N)(=O)=O)cc2C2C=CCC21 (stereo not drawn) [2,6MP-TQS, cis-trans-4-(2,6-dimethylphenyl)-3a,4,5,9b-tetrahydro-3H-cyclopenta[c]quinoline-8-sulfonamide]
[2]
  IC50: 43 ± 14 µM

## Cc1ccc(C2Nc3ccc(S(N)(=O)=O)cc3C3C=CCC32)c(C)c1C (stereo not drawn) [2,3,4MP-TQS, cis-cis-4-(2,3,4-trimethylphenyl)-3a,4,5,9b-tetrahydro-3H-cyclopenta[c]quinoline-8-sulfonamide]
[1]; read-out: EC50
  EC50: 9.8 ± 0.8 µM

## Cc1ccc(C2Nc3ccc(S(N)(=O)=O)cc3C3C=CCC32)c(C)c1 (stereo not drawn) [2,4MP-TQS, cis-cis-4-(2,4-dimethylphenyl)-3a,4,5,9b-tetrahydro-3H-cyclopenta[c]quinoline-8-sulfonamide]
[1]; read-out: EC50
  EC50: 11 ± 1 µM

## Cc1c(C)c(C)c(C2Nc3ccc(S(N)(=O)=O)cc3C3C=CCC32)c(C)c1C (stereo not drawn) [PentaMP-TQS, cis-trans-4-(2,3,4,5,6-pentamethylphenyl)-3a,4,5,9b-tetrahydro-3H-cyclopenta[c]quinoline-8-sulfonamide]
[1]; allosteric potentiation (type I PAM) of 100 μM acetylcholine, 10 s preapplication, -60 mV, bell-shaped curve, unreliable
  EC50: 0.55 ± 0.36 µM

## Cc1cccc(C2Nc3ccc(S(N)(=O)=O)cc3C3C=CCC32)c1 (stereo not drawn) [3MP-TQS, cis-cis-4-m-tolyl-3a,4,5,9b-tetrahydro-3H-cyclopenta[c]quinoline-8-sulfonamide]
[1]; allosteric potentiation (type II PAM) of 100 μM acetylcholine, maximal PAM concentration (100 μM, Figure 4), -60 mV
  Fold potentiation: 22 ± 2.1 fold

## Cc1ccc(C2Nc3ccc(S(N)(=O)=O)cc3C3C=CCC32)cc1C (stereo not drawn) [3,4MP-TQS, cis-cis-4-(3,4-dimethylphenyl)-3a,4,5,9b-tetrahydro-3H-cyclopenta[c]quinoline-8-sulfonamide]
[1]; 100 μM, allosteric agonist, relative to 3 mM acetylcholine, -60 mV
  Imax: 7.8 ± 3.0 fold effect

## Cc1cc(C)c(C2Nc3ccc(S(N)(=O)=O)cc3C3C=CCC32)c(C)c1 (stereo not drawn) [2,4,6MP-TQS, cis-trans-4-mesityl-3a,4,5,9b-tetrahydro-3H-cyclopenta[c]quinoline-8-sulfonamide]
[2]
  IC50: 5.2 ± 0.8 µM

## Cc1ccc(C2Nc3ccc(S(N)(=O)=O)cc3C3C=CCC32)cc1 (stereo not drawn) [4MP-TQS, cis-cis-4-p-tolyl-3a,4,5,9b-tetrahydro-3H-cyclopenta[c]quinoline-8-sulfonamide]
[1]; read-out: EC50
  EC50: 27 ± 3.1 µM

## Cc1cc(C)c(C2Nc3ccc(S(N)(=O)=O)cc3C3C=CCC32)c(C)c1C (stereo not drawn) [2,3,4,6MP-TQS, cis-trans-4-(2,3,4,6-tetramethylphenyl)-3a,4,5,9b-tetrahydro-3H-cyclopenta[c]quinoline-8-sulfonamide]
[1]; read-out: EC50
  EC50: 9.1 ± 2 µM

## Cc1ccc(C)c(C2Nc3ccc(S(N)(=O)=O)cc3C3C=CCC32)c1C (stereo not drawn) [2,3,6MP-TQS, cis-trans-4-(2,3,6-trimethylphenyl)-3a,4,5,9b-tetrahydro-3H-cyclopenta[c]quinoline-8-sulfonamide]
[2]
  IC50: 23 ± 2.8 µM

## Cc1cc(C)c(C)c(C2Nc3ccc(S(N)(=O)=O)cc3C3C=CCC32)c1 (stereo not drawn) [2,3,5MP-TQS, cis-cis-4-(2,3,5-trimethylphenyl)-3a,4,5,9b-tetrahydro-3H-cyclopenta[c]quinoline-8-sulfonamide]
[1]; read-out: EC50
  EC50: 3.9 ± 0.7 µM
